Laboratory results from patent US10953071B2, “Compositions and methods for treatment of intracellular damage and bacterial infection” (priority 2011, dated 2021).
“Also recorded” adds a separate entry of the source. Read-outs that look alike come from different tables or passages of the source.

Columns and labels:
[1] = tested on: bone marrow derived phagocytes exposed to Mtb; type: cell-based, mouse
[2] = tested on: stimulated human T lymphocytes; experiment: Cytokine production by anti-CD3/CD28 stimulated human mononuclear cells with Kv1.3 and IDE inhibitors; type: cell-based
Experimental: Peripheral blood was obtained from two healthy donors. Mononuclear cells were purified by Ficol-Hypaque centrifugation. […] The culture supernatants were collected 24 hours post-treatment and were assayed for eleven Th1/Th2 cytokines using a multiplex system (Bender, Cat. No. BMS810FF): IL-1beta, IL-2, IL-4, IL-5, IL-6, IL-8, IL-10, IL-12p70, TNF-alpha, TNF-beta, IFN-gamma.

PBMCs = experiment: Cytokine secretion of naïve and stimulated PBMCs; type: cell-based, human; conditions: for TH2 and TH1 cytokines secretion in activated PBMCs: anti-CD3 or anti-CD3/anti-CD28 stimulation
Experimental: FIG. 3A and FIG. 3B illustrate that mitogen stimulation enhances FITC-PIF binding to T and B cell populations. PBMC were cultured with PHA for 24 h. Binding of FITC-PIF to different PBMC populations was determined by two color flow cytometry. Binding was low (<10% in unstimulated cells a, upper panel from left to right) CD4+, CD8+, NK, (CD56+) and B (CD19+) cells. However, it led to a ˜30-fold increase in binding to b (lower panel from left to right), CD4+, CD8+ and B (CD19+) cells. Binding was unchanged for NK cells, even after a 72 hour incubation period. FIG. 3C, FIG. 3D, FIG. 3E, and FIG. 3F illustrate that sPIF promotes TH2/TH1 cytokine bias in stimulated PBMCs. […] FIG. 3B illustrates sPIF (50 nM); FIG. 3C illustrates PIFscr (50 nM); FIG. 3D illustrates sPIF (50 nM)+anti-CD3 mAb; FIG. 3E illustrates PIFscr+anti-CD3 mAb. sPIF affected variably stimulated PBMCs individual cytokines secretion. In contrast, some cytokine secretion in naïve PBMCs decreased (not shown). […] Cytokine secretion determined by Luminex 10-plex. […] PBMCs were cultured in the presence of anti-CD3/anti-CD28-Mab for 24-48 hours. […] The effect on PBMCs at 48 hours was less pronounced (data not shown). At the end of experiment mRNA was extracted and global gene expression was analyzed by using an Affymetrix chip.

ApoE−/− mice = experiment: Atherosclerosis model, ApoE−/− mice fed high fat Western diet; type: in vivo, mouse
Experimental: Aortic root and arch sections were stained with HE. The mean atherosclerotic area (μm2)±SEM was quantified.
ORO histology was employed to identify lipids in the mouse atherosclerotic plaque. Lipids were quantified by red signal intensity percentage area of plaque±SEM. […] All animals still had very high cholesterol levels and to obtain a reading, the plasma was diluted to 1:10. After analysis, no statistical difference was seen between any group using one way ANOVA paired with Tukey's Multiple Comparison Test. […]
Treatments were administered via 150 μL i.p. injection every 3rd day, for a total of 7 weeks.

Ca++ mobilization = tested on: Ca++ mobilization
Experimental: FITC-sPIF binding to PBMCs subsets was determined using flow cytometry. sPIF's effect on Ca++ mobilization was tested by Flex station.

[3] = tested on: RAW (Macrophage cell line); conditions: PIF 200 nM, 2 or 5 day incubation, no LPS
Experimental: (§1) Mouse splenocytes were used for mixed Lymphocytes Reaction (MLR). Balb/c cells were cultured in the presence of irradiated C57/Bl cells for 4 days. […] Cell proliferation was tested by H3 Tymidine uptake assay. […] One representative experiment is shown out of four performed. […] Anti-CD3 antibodies were added to the medium for T cell activation. Cell proliferation was tested by H3 Thymidine uptake. […] At day 7, 100 ng/ml IFN γ was added. After 10 days cells were analyzed by FACS analysis using anti-B7-H1 antibodies. FIG. 2D illustrates murine macrophages were cultured with GM-CSF for 10 days. IFN-γ was added to the culture at day 7 for cell activation. […] This is relevant since B7-H1 is one of the newly defined inhibitory B7 family molecules. It is known that IFN gamma potently stimulates B7-H1 expression on APC. […] THP-1 cells were incubated for 48 hours, then were stimulated with […] and collected at 0, 1, 8, 12 and 24 hour time points. […] The 8 hour time point was selected to allow time for cell stimulation. The gene regulation comes quickly and the selected time point allows enough time for stimulation and not over/under. […] In the last 24 hours of the experiment, LPS was added to the culture for cell activation. Greiss reagent test was performed to detect NO secretion to the supernatant.
In the last 24 hours of the experiment, LPS was added to the culture for cell activation. […]

Nos2 = conditions: mouse, in vivo
THP-1 cells [4] = tested on: THP-1 cells
T cells = conditions: monocytes 10 days with 200 nM PIF, co-culture 4 days, anti-CD3
Experimental: as §1

THP-1 cells [5] = tested on: THP-1 cells; remark: listed apart in the source
Experimental: as §1

B7-H1 = conditions: 200 nM PIF, 10 days, IFN γ at day 7
Experimental: as §1

[6] = tested on: Balb/c splenocytes with irradiated C57/Bl cells; conditions: 4 days; 150 nM and 200 nM PIF significant
Experimental: as §1

C57bl6 mice = conditions: 0.3 nmol/g i.p.
Experimental: Peritonitis was induced by injecting 3 ml 4% thioglycolate i.p. and after 20 hours, the mice were anaesthetized and the peritoneal cavity was flushed with 5 ml sterile PBS. Subsequently, monocytes/macrophages were quantified with F4/80 and CD11b in flow cytometry.
Peritonitis was induced by injecting 3 ml 4% thioglycolate i.p. and after 20 hours, the mice were anaesthetized and the peritoneal cavity was flushed with 5 ml sterile PBS. Subsequently, monocytes and macrophages were quantified with F4/80 and CD11b in flow cytometry.

[7] = Surface Plasmon Resonance, LPS binding to PIF-labeled sensor surface; set-up: species or system E. coli; conditions: LPS 5, 25 and 100 μM, immobilized peptide, preliminary results
Experimental: Surface Plasmon Resonance spectroscopy (SPR) was used to evaluate LPS and LPS receptors binding (TLR4-MD2 and CD14) to the PIF-labeled sensor surface. Two chemotypes of LPS (From E. coli O55:B5 and E. coli EH100) at 3 concentrations (5, 25 and 100 μM) were tested.

IFNγ: phagocyte-activating cytokine
IL-1a, IL-1b, TNFa, MIP-1alpha and KC response to Mtb, PIF and anti-Kv1.3, effect of IFN [1]: lost
MCP-1, IL-6 and IL-5 response to Mtb and PIF, effect of IFN [1]: stopped

MVRIKPGSANKPSDD [PIF]
Th1/Th2 cytokine analytes, PIF alone ([2]; PIF 1, 10 and 50 nM, no stimulation, 24 hours): no effect
binding to intracellular insulin degrading enzyme (IDE) ([2]; concluded from cell based assay using specific IDE inhibitor): bind
TH2 and TH1 cytokines secretion in activated PBMCs (PBMCs): increased
TH2 and TH1 cytokines secretion in activated PBMCs (PBMCs; listed as sPIF): promotes
TH1 (TNF-α, IL2) cytokines in naïve PBMCs (PBMCs; naïve PBMCs): reduces
cytokine secretion, PIF alone (PBMCs; without TCR stimulation, 24-48 hours): no significant promoting effect
reduction of plaque area in the aortic root compared to PBS control (ApoE−/− mice; PIF 0.1 mg/kg/day, i.p.): 30%
plaque area of the aortic arch compared to both doses of scrPIF (ApoE−/− mice; PIF 1 mg/kg/day): reduction
reduction of plaque area in the aortic root compared to PBS control (ApoE−/− mice; PIF 1 mg/kg/day, i.p.): 46%
reduction of plaque area of the aortic arch compared to PBS control (ApoE−/− mice; PIF 1 mg/kg/day, i.p.): 43%
plaque area in the aortic root compared to both doses of scrPIF (ApoE−/− mice; higher dose of PIF (1 mg/kg/day)): statistically significantly reduced
CD68 in the aortic root and arch (ApoE−/− mice; mouse, in vivo): reduces
MCP-1 in the aortic root and arch (ApoE−/− mice; mouse, in vivo): reduces
VCAM-1 in the aortic root and arch (ApoE−/− mice; mouse, in vivo): reduces
atherosclerosis formation (protective effect) (ApoE−/− mice; mouse, in vivo): reduces
lipids (Oil Red O staining) in the aortic root and arch (ApoE−/− mice; mouse, in vivo): reduces
action through Ca++ mobilization (Ca++ mobilization): does not act through Ca++ mobilization
MCP-1, IL-6 and IL-5 induction by Mtb, effect of PIF [1]: further induced; also recorded: augmented
MCP-1 secretion by isolated macrophages [1]: increased
MIG and IP10 chemokines, effect of PIF [1]: modestly augmented
TNF, IL-1a, IL-1b, IL-6, MCP-1, MIP1a and KC response of BMDCs to Mtb [1]: increased
TNF, IL-1α, IL-1β, MIP1α and KC induction by Mtb, effect of PIF [1]: augmented
VEGF and FGFb (growth factors) in BMDCs exposed to Mtb [1]: augmented
VEGF and FGFβ induction by Mtb, effect of PIF [1]: promoted; also recorded: augmented
baseline NO [3]: did not affect
elevation of Nos2 expression in liver of semi-allogenic BMT mice (Nos2): completely prevented
MCP-1 induced transmigration of THP-1 cells (THP-1 cells [4]; PIF 1 μM): significantly reduced
MCP-1 induced transmigration of THP-1 cells (THP-1 cells [4]; PIF 10 μM): significantly reduced
anti-CD3-Mab-stimulated proliferation and mixed lymphocyte reaction (human PBMCs): blocked
T cell proliferation with PIF-treated monocytes (T cells): reduced proliferation but did not block it
VCAM-1, IL-12b and IFNg in THP-1 cells (THP-1 cells [5]): reduced
B7-H1 expression (B7-H1): up-regulates
B7-H1 expression (B7-H1; listed as sPIF): significantly increased
allogenic lymphocyte proliferation in MLR [6]: reduce cells proliferation in a dose dependent manner
MCP-1 induced monocyte migration in mouse peritonitis model (C57bl6 mice): inhibits
binding to LPS chemotypes (SPR) [7]: no apparent LPS binding
